Experimental data: US8129398B2 (priority 2008, dated 2012)
pEC50, pIC50, pKi: −log10 of the molar value. Where two headings read alike, the source gives them in different places.

Key:
[1] = tested on: recombinant NL-Rluc virus; test: Inhibition of HIV replication (recombinant NL-Rluc virus, Renilla luciferase reporter); assay type: cell-based
HIV-integrase = biological target: T1, HIV-integrase (Human immunodeficiency virus type 1 group M subtype B, UniProt P12497); test: HIV-Integrase Inhibition Activity (SPA bead integration assay with P33 labeled target DNA); assay type: biochemical; conditions: for pIC50: recombinant integrase, class symbols, read-out: in vitro activity; for pKi: representative compounds
T1 construct: Recombinant integrase (0.26 ng) was incubated with the beads
Summary of the method: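 Biotinylated substrate DNA on streptavidin SPA beads loaded with recombinant integrase (90 min, 37° C), washed, then inhibitor plus 0.1 fmol P33-labeled target DNA added. Reaction stopped with 10 mM EDTA; integration measured as CPM by scintillation, giving IC50 ranks.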

With `CN(C)C(=O)C(=O)NC12CCC(CCn3c1nc(C(=O)NCc1ccc(F)cc1)c(O)c3=O)C2` (single isomer, unassigned) [Example 414, Ethanediamide, N′-[2-[[[(4-fluorophenyl)methyl]amino]carbonyl]-7,8,9,10-tetrahydro-3-hydroxy-4-oxo-8,11-methano-4H-pyrimido[1,2-a]azocin-11(6H)-yl]-N,N-dimethyl-] the pEC50 ([1]; read-out: Antiviral activity, NL-Rluc virus, serum condition not specified (10% FBS, 15 mg/ml human serum albumin/10% FBS or 40% human serum/5% FBS), class symbols) was greater than 8.00 and the pIC50 (HIV-integrase) was greater than 8.00.
Work on `CC(=O)NC12CCC(CC1)Cn1c2nc(C(=O)NCc2ccc(F)cc2-n2ncnc2C)c(O)c1=O` [Example 38, 10-(Acetylamino)-N-(4-fluoro-2-(5-methyl-1H-1,2,4-triazol-1-yl)benzyl)-3-hydroxy-4-oxo-4,6,7,8,9,10-hexahydro-7,10-ethanopyrimido[1,2-a]azepine-2-carboxamide] yielded a pEC50 ([1]; Human immunodeficiency virus 1) of 7.43, a pIC50 (HIV-integrase) greater than 8.00 and a pKi (HIV-integrase) of 8.05.
`Cc1cc(CNC(=O)c2nc3n(c(=O)c2O)CC2CCC3(NS(=O)(=O)C3CC3)CC2)ccc1F` [Example 42, 10-((Cyclopropylsulfonyl)amino)-N-(4-fluoro-3-methylbenzyl)-3-hydroxy-4-oxo-4,6,7,8,9,10-hexahydro-7,10-ethanopyrimido[1,2-a]azepine-2-carboxamide] was tested, and the pEC50 ([1]; Human immunodeficiency virus 1) was 9.00, the pIC50 (HIV-integrase) was greater than 8.00 and the pKi (HIV-integrase) was 9.00.
